According to PubChem BioAssay AID2060884 (Molecular Pharmacology Branch, DTP, NCI, 2025):

System: NCI-H929 complex spheroids, viability % test/control
Test: Anticancer human tumor NCI-H929 cell line growth inhibition [RAS];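 also: compound exposure lasted seven days before viability was read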;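 as to viability, T/C: 100% = DMSO vehicle control viability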
Conditions: for IC50: curve of first compound; for viability, T/C: stronger effect = lower value
Method in brief: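 Agents were tested in combination matrices in half-log decrements from a top concentration at or near clinical Cmax (10 microM if undetermined). Targets were multi-cell spheroids of tumour lines plus HUVEC and MSC stromal cells.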

Structure (SMILES): CC1(C)CCC(Nc2ncc(C(F)(F)F)c(-c3c[nH]c4c(P(C)(C)=O)c(C#N)ccc34)n2)CN1 (stereo unspecified) + CCn1c(-c2cc(N3CCN(C)CC3)cnc2C(C)OC)c2c3cc(ccc31)-c1csc(n1)CC(NC(=O)C1CC1C)C(=O)N1CCCC(N1)C(=O)OCC(C)(C)C2
- IC50 (second compound 0.000949 µM): 2.23 nM
- IC50 (second compound 0.003 µM): 2.53 nM
- IC50 (second compound 0.00949 µM): 1.94 nM
- IC50 (second compound 0.03 µM): < 0.949 nM
- IC50 (second compound 0.0949 µM): < 0.949 nM
- IC50 (second compound 0.3 µM): < 0.949 nM
- viability, T/C (second compound 0.000949 µM, first compound 0.000949 µM): 116%
- viability, T/C (second compound 0.000949 µM, first compound 0.003 µM): 26.9%
- viability, T/C (second compound 0.000949 µM, first compound 0.00949 µM): 8.16%
- viability, T/C (second compound 0.000949 µM, first compound 0.03 µM): 6.16%
- viability, T/C (second compound 0.000949 µM, first compound 0.0949 µM): 4.71%
- viability, T/C (second compound 0.000949 µM, first compound 0.3 µM): 3.65%
- viability, T/C (second compound 0.003 µM, first compound 0.000949 µM): 112%
- viability, T/C (second compound 0.003 µM, first compound 0.003 µM): 39.4%
- viability, T/C (second compound 0.003 µM, first compound 0.00949 µM): 10.1%
- viability, T/C (second compound 0.003 µM, first compound 0.03 µM): 7.4%
- viability, T/C (second compound 0.003 µM, first compound 0.0949 µM): 5.4%
- viability, T/C (second compound 0.003 µM, first compound 0.3 µM): 4.64%
- viability, T/C (second compound 0.00949 µM, first compound 0.000949 µM): 91.8%
- viability, T/C (second compound 0.00949 µM, first compound 0.003 µM): 24.4%
- viability, T/C (second compound 0.00949 µM, first compound 0.00949 µM): 8.42%
- viability, T/C (second compound 0.00949 µM, first compound 0.03 µM): 5.44%
- viability, T/C (second compound 0.00949 µM, first compound 0.0949 µM): 5.01%
- viability, T/C (second compound 0.00949 µM, first compound 0.3 µM): 4.22%
- viability, T/C (second compound 0.03 µM, first compound 0.000949 µM): 16.8%
- viability, T/C (second compound 0.03 µM, first compound 0.003 µM): 5.53%
- viability, T/C (second compound 0.03 µM, first compound 0.00949 µM): 2.91%
- viability, T/C (second compound 0.03 µM, first compound 0.03 µM): 2.43%
- viability, T/C (second compound 0.03 µM, first compound 0.0949 µM): 1.95%
- viability, T/C (second compound 0.03 µM, first compound 0.3 µM): 1.14%
- viability, T/C (second compound 0.0949 µM, first compound 0.000949 µM): 2.94%
- viability, T/C (second compound 0.0949 µM, first compound 0.003 µM): 1.38%
- viability, T/C (second compound 0.0949 µM, first compound 0.00949 µM): 1.46%
- viability, T/C (second compound 0.0949 µM, first compound 0.03 µM): 0.67%
- viability, T/C (second compound 0.0949 µM, first compound 0.0949 µM): 0.66%
- viability, T/C (second compound 0.0949 µM, first compound 0.3 µM): 0.53%
- viability, T/C (second compound 0.3 µM, first compound 0.000949 µM): 1.65%
- viability, T/C (second compound 0.3 µM, first compound 0.003 µM): 0.63%
- viability, T/C (second compound 0.3 µM, first compound 0.00949 µM): 0.85%
- viability, T/C (second compound 0.3 µM, first compound 0.03 µM): 1.47%
- viability, T/C (second compound 0.3 µM, first compound 0.0949 µM): 0.57%
- viability, T/C (second compound 0.3 µM, first compound 0.3 µM): 0.6%

Structure (SMILES): C=CC(=O)Nc1cc(Nc2nccc(-c3cn(C)c4ccccc34)n2)c(OC)cc1N(C)CCN(C)C + C=CC(=O)N1CCN(c2nc(OCC3CCCN3C)nc3c(F)c(-c4nc(N)cc(C)c4C(F)(F)F)c(Cl)cc23)C(C)C1
- IC50 (second compound 0.00316 µM): > 1000 nM
- IC50 (second compound 0.01 µM): > 1000 nM
- IC50 (second compound 0.0316 µM): > 1000 nM
- IC50 (second compound 0.1 µM): > 1000 nM
- IC50 (second compound 0.316 µM): > 1000 nM
- IC50 (second compound 1 µM): > 1000 nM
- viability, T/C (second compound 0.00316 µM, first compound 0.00316 µM): 93.4%
- viability, T/C (second compound 0.00316 µM, first compound 0.01 µM): 97.7%
- viability, T/C (second compound 0.00316 µM, first compound 0.0316 µM): 102%
- viability, T/C (second compound 0.00316 µM, first compound 0.1 µM): 95.2%
- viability, T/C (second compound 0.00316 µM, first compound 0.316 µM): 100%
- viability, T/C (second compound 0.00316 µM, first compound 1 µM): 103%
- viability, T/C (second compound 0.01 µM, first compound 0.00316 µM): 101%
- viability, T/C (second compound 0.01 µM, first compound 0.01 µM): 100%
- viability, T/C (second compound 0.01 µM, first compound 0.0316 µM): 101%
- viability, T/C (second compound 0.01 µM, first compound 0.1 µM): 101%
- viability, T/C (second compound 0.01 µM, first compound 0.316 µM): 99.4%
- viability, T/C (second compound 0.01 µM, first compound 1 µM): 107%
- viability, T/C (second compound 0.0316 µM, first compound 0.00316 µM): 95.5%
- viability, T/C (second compound 0.0316 µM, first compound 0.01 µM): 99.8%
- viability, T/C (second compound 0.0316 µM, first compound 0.0316 µM): 104%
- viability, T/C (second compound 0.0316 µM, first compound 0.1 µM): 99.3%
- viability, T/C (second compound 0.0316 µM, first compound 0.316 µM): 103%
- viability, T/C (second compound 0.0316 µM, first compound 1 µM): 104%
- viability, T/C (second compound 0.1 µM, first compound 0.00316 µM): 98.1%
- viability, T/C (second compound 0.1 µM, first compound 0.01 µM): 101%
- viability, T/C (second compound 0.1 µM, first compound 0.0316 µM): 108%
- viability, T/C (second compound 0.1 µM, first compound 0.1 µM): 99.1%
- viability, T/C (second compound 0.1 µM, first compound 0.316 µM): 101%
- viability, T/C (second compound 0.1 µM, first compound 1 µM): 107%
- viability, T/C (second compound 0.316 µM, first compound 0.00316 µM): 101%
- viability, T/C (second compound 0.316 µM, first compound 0.01 µM): 104%
- viability, T/C (second compound 0.316 µM, first compound 0.0316 µM): 101%
- viability, T/C (second compound 0.316 µM, first compound 0.1 µM): 99.5%
- viability, T/C (second compound 0.316 µM, first compound 0.316 µM): 104%
- viability, T/C (second compound 0.316 µM, first compound 1 µM): 105%
- viability, T/C (second compound 1 µM, first compound 0.00316 µM): 106%
- viability, T/C (second compound 1 µM, first compound 0.01 µM): 106%
- viability, T/C (second compound 1 µM, first compound 0.0316 µM): 107%
- viability, T/C (second compound 1 µM, first compound 0.1 µM): 105%
- viability, T/C (second compound 1 µM, first compound 0.316 µM): 107%
- viability, T/C (second compound 1 µM, first compound 1 µM): 106%

Structure (SMILES): Nc1ccn(C2OC(CO)C(O)C2(F)F)c(=O)n1 (stereo unspecified) + CCn1c(-c2cccnc2C(C)OC)c2c3cc(ccc31)N1CCOC(CC(NC(=O)C(C(C)C)N(C)C(=O)C3(F)CCN(C(=O)C#CC(C)(C)N(C)C)CC3)C(=O)N3CCCC(N3)C(=O)OCC(C)(C)C2)C1
- IC50 (second compound 0.000949 µM): 6.16 nM
- IC50 (second compound 0.003 µM): 6.22 nM
- IC50 (second compound 0.00949 µM): 5.72 nM
- IC50 (second compound 0.03 µM): 5.97 nM
- IC50 (second compound 0.0949 µM): 5.49 nM
- IC50 (second compound 0.3 µM): 5.79 nM
- viability, T/C (second compound 0.000949 µM, first compound 0.00316 µM): 105%
- viability, T/C (second compound 0.000949 µM, first compound 0.01 µM): 10.1%
- viability, T/C (second compound 0.000949 µM, first compound 0.0316 µM): 0.99%
- viability, T/C (second compound 0.000949 µM, first compound 0.1 µM): 0.68%
- viability, T/C (second compound 0.000949 µM, first compound 0.316 µM): 0.75%
- viability, T/C (second compound 0.000949 µM, first compound 1 µM): 0.74%
- viability, T/C (second compound 0.003 µM, first compound 0.00316 µM): 103%
- viability, T/C (second compound 0.003 µM, first compound 0.01 µM): 12.8%
- viability, T/C (second compound 0.003 µM, first compound 0.0316 µM): 0.86%
- viability, T/C (second compound 0.003 µM, first compound 0.1 µM): 0.83%
- viability, T/C (second compound 0.003 µM, first compound 0.316 µM): 0.91%
- viability, T/C (second compound 0.003 µM, first compound 1 µM): 0.96%
- viability, T/C (second compound 0.00949 µM, first compound 0.00316 µM): 96.3%
- viability, T/C (second compound 0.00949 µM, first compound 0.01 µM): 6.3%
- viability, T/C (second compound 0.00949 µM, first compound 0.0316 µM): 1.25%
- viability, T/C (second compound 0.00949 µM, first compound 0.1 µM): 0.77%
- viability, T/C (second compound 0.00949 µM, first compound 0.316 µM): 0.75%
- viability, T/C (second compound 0.00949 µM, first compound 1 µM): 0.72%
- viability, T/C (second compound 0.03 µM, first compound 0.00316 µM): 99.8%
- viability, T/C (second compound 0.03 µM, first compound 0.01 µM): 9.61%
- viability, T/C (second compound 0.03 µM, first compound 0.0316 µM): 1.21%
- viability, T/C (second compound 0.03 µM, first compound 0.1 µM): 0.91%
- viability, T/C (second compound 0.03 µM, first compound 0.316 µM): 0.88%
- viability, T/C (second compound 0.03 µM, first compound 1 µM): 0.89%
- viability, T/C (second compound 0.0949 µM, first compound 0.00316 µM): 92.5%
- viability, T/C (second compound 0.0949 µM, first compound 0.01 µM): 3.76%
- viability, T/C (second compound 0.0949 µM, first compound 0.0316 µM): 1.08%
- viability, T/C (second compound 0.0949 µM, first compound 0.1 µM): 0.91%
- viability, T/C (second compound 0.0949 µM, first compound 0.316 µM): 0.76%
- viability, T/C (second compound 0.0949 µM, first compound 1 µM): 0.75%
- viability, T/C (second compound 0.3 µM, first compound 0.00316 µM): 103%
- viability, T/C (second compound 0.3 µM, first compound 0.01 µM): 2.46%
- viability, T/C (second compound 0.3 µM, first compound 0.0316 µM): 1.01%
- viability, T/C (second compound 0.3 µM, first compound 0.1 µM): 0.96%
- viability, T/C (second compound 0.3 µM, first compound 0.316 µM): 0.99%
- viability, T/C (second compound 0.3 µM, first compound 1 µM): 0.8%
